Consider five molecules from patent US6362160B1, “Immunophilin-binding agents prevent glutamate neurotoxicity associated with vascular stroke and neurodegenerative diseases” (The Johns Hopkins University School of Medicine, priority 1993, dated 2002).

Assay [1] relates to cGMP formation in primary neuronal cortical cultures. In words: cGMP levels in primary neuronal cortical cultures. It is filed as cell-based, rat. The protocol: Methods: Primary neuronal cortical cultures were treated under identical conditions as those used for assessment of neurotoxicity except for the addition of 100 μM isobutylmethylxanthine (IBMX) to all wells to inhibit phosphodiesterases. […] Following ether extraction, cGMP was assayed utilizing an Amersham ^125 I-assay kit according to the manufacturer's instructions. Data represent the mean (±S.E.M.) of 6-12 wells (2-3 different plating of cultures) in duplicate. Statistical significance was determined by the Student's t-test, *p≦0.005.

Assay [2] has as its system NMDA elicited Ca2+ currents. Description: NMDA elicited Ca2+ currents in cortical cultures. The format is cell-based, rat. To be noted: FK-506 500 nM (data not shown).
For assay [3], the system named is primary cerebral cortical neuronal cultures. Description: cells. It is filed as cell-based. The procedure:
Methods: Primary neuronal cultures from cortex were prepared from fetal Sprague-Dawley rats gestation day 13-14. After dissection, the cells were dissociated by trituration, counted, and plated in 15 mm multi-well (Nunc) plates coated with polyornithine at a density of 3-4×10^5 cells per well. Proliferation of non-neuronal cells was inhibited by applying 10 μg of 5-fluor-2′-deoxyuridine 4 days after plating for a total of 3 days. Neurons were maintained in modified Eagle's medium (MEM), 5% horse serum, 2 mM glutamine in 8% CO2, humidified at 37° C. Media was changed twice a week. Mature neurons (greater than 21 days in culture) were used in all experiments.
Neurotoxicity was determined by exposing the neurons to the various test solutions as previously described (Dawson, et al., Proc. Natl. Acad. Sci., USA, 88:6368-6371 (1991)). Prior to exposure, the cells were washed 3 times with a Tris-buffered control solution (CSS) containing 120 mM NaCl, 5.4 mM KCl, 1.8 mM CaCl2, 25 mM Tris-HCl, 15 mM glucose at pH 7.4. […] Rapamycin (RAPA) was applied 5 min. prior to and during the application of FK-506 and the excitatory amino acids. Following immunosuppressant drug pretreatment, NMDA and quisqualate were applied to the cells for 5 min., then the cells were washed with CSS and replaced with MEM, 21 mM glucose for 24 hr. in the incubator. Exposures to kainate were performed in MEM, 21 mM glucose for 24 hr. in the incubator. NMDA, quisqualate, and kainate were also applied to the neurons without immunosuppressant drug pretreatment. The effect of N-Arg (L-nitroarginine) on NMDA neurotoxicity was assessed as described (Dawson, et al., Proc. Natl. Acad. Sci., USA, 88:6368-6371 (1991)). Twenty to 24 hr. after exposure to test solutions, the neurons were exposed to 0.4% trypan blue in CSS to stain the residue of non-viable cells and to assess toxicity. Viable and non-viable cells were counted with approximately 500-1,500 cells counted per well. At least two separate experiments utilizing four separate wells were performed for each data point shown. A minimum of 4,000-12,000 neurons were counted for each data point. In some experiments photomicrographs were made before and after treatment using a transparent grid at the bottom of each culture plate. Viable and non-viable neurons in identical fields were counted by an observer blinded to study design and treatment protocol.

In the case of `C=CC[C@@H]1/C=C(\C)C[C@H](C)C[C@H](OC)[C@H]2O[C@@](O)(C(=O)C(=O)N3CCCC[C@H]3C(=O)O[C@H](/C(C)=C/[C@@H]3CC[C@@H](O)[C@H](OC)C3)[C@H](C)[C@@H](O)CC1=O)[C@H](C)C[C@@H]2OC` [FK-506], the “% Basal cGMP Level (± S.E.M.)” value in assay [1] (300 μM SNP + 100 nM FK-506) is recorded as 509.9 ± 63.4%; in assay [1] (500 μM NMDA + 100 nM FK-506) it was “*89.3 ± 25.4%”. Further, in assay [1] (FK-506 100 nM), the “reduction of the NMDA stimulation of cGMP levels” value is given as “approximately 80%”. For the same molecule, the “effect on NMDA elicited Ca2+ currents” value in assay [2] is listed as “no effect”. Also, the “% Cell Death (± S.E.M.)” value in assay [3] (100 μM Kainate + 500 nM FK-506) is 88.1 ± 3.8%; in assay [3] (500 μM Glutamate + 500 nM FK-506), “*40.6 ± 3.9%”; in assay [3] (500 μM NMDA + 500 pM FK-506) it was 78.3 ± 4.7%; in assay [3] (500 μM NMDA + 1 nM FK-506), 77.1 ± 4.0%; in assay [3] (500 μM NMDA + 10 nM FK-506), 68.5 ± 11.2%; in assay [3] (500 μM NMDA + 25 nM FK-506), “*67.2 ± 4.1%”. Besides, the “% Cell Death (± S.E.M.)” value in assay [3] (500 μM NMDA + 50 nM FK-506) is listed as “*61.9 ± 5.8%”; in assay [3] (500 μM NMDA + 100 nM FK-506), “*40.0 ± 9.1%”; in assay [3] (500 μM NMDA + 500 nM FK-506), “**29.7 ± 5.8%”; in assay [3] (500 μM NMDA + 1 μM FK-506), “**29.2 ± 4.1%”; in assay [3] (500 μM Quisqualate + 500 nM FK-506), 90.5 ± 4.4%. For the same molecule, the EC50 in assay [3] (Rattus norvegicus, applied 5 min prior to and during 5 min NMDA application, read-out: concentration at which 50% protection from NMDA neurotoxicity is evident) was in the range of 25 to 100 nM. In addition, in assay [3] (applied 5 min prior to and during 5 min NMDA application), the “lowest concentration providing significant protection from NMDA neurotoxicity” value worked out at 25 nM.

As to `N[C@@H](CCC(=O)O)C(=O)O` [Glutamate], in assay [3] (500 μM Glutamate alone), the “% Cell Death (± S.E.M.)” value came to 76.0 ± 5.2%.

As to `C=C(C)[C@H]1CN[C@H](C(=O)O)[C@H]1CC(=O)O` [Kainate, kainate], in assay [3] (100 μM Kainate alone, 24 hr exposure), the “% Cell Death (± S.E.M.)” value was determined as 83.2 ± 6.3%. Also, in assay [3] (kainate 100 μM), the “cell death elicited, compared with glutamate (500 μM)” value was “as much cell death as glutamate”.

For `CN[C@H](CC(=O)O)C(=O)O` [NMDA, N-methyl-D-aspartate], in assay [1] (500 μM NMDA alone, 5 min, 100 μM IBMX), the “% Basal cGMP Level (± S.E.M.)” value amounted to 552.6 ± 95.6%. Moreover, the “% Cell Death (± S.E.M.)” value in assay [3] (500 μM NMDA alone, 5 min exposure, counted 20-24 hr later) turned out to be 82.8 ± 4.3%. Besides, in assay [3] (5 min exposure to NMDA, observed 24 hrs later), the death of neurons result is given as “about 80%”.

For the molecule `N[C@@H](Cn1oc(=O)[nH]c1=O)C(=O)O` [Quisqualate, quisqualate], in assay [3] (500 μM Quisqualate alone, 5 min exposure), the “% Cell Death (± S.E.M.)” value came to 85.9 ± 6.0%. Also, in assay [3] (quisqualate 500 μM), the “cell death elicited, compared with glutamate (500 μM)” value is reported as “as much cell death as glutamate”.
